ChEMBL document CHEMBL3808318, “Design, synthesis and inhibitory activity against human dihydroorotate dehydrogenase (hDHODH) of 1,3-benzoazole derivatives bearing amide units” (Bioorg Med Chem Lett, 2016)

Key:
[1] = target: T1, Dihydroorotate dehydrogenase (quinone), mitochondrial (Homo sapiens, UniProt Q02127); assay: Inhibition of human DHODH assessed as decrease in DCIP at 10 uM using dihydroorotate as substrate measured every 30 seconds for 6 mins
[2] = target: T1, Dihydroorotate dehydrogenase (quinone), mitochondrial; assay: Inhibition of human DHODH assessed as decrease in DCIP using dihydroorotate as substrate measured every 30 seconds for 6 mins
[3] = target: T1, Dihydroorotate dehydrogenase (quinone), mitochondrial; assay: Potency index, ratio of A771726 IC50 to compound IC50 for human DHODH

T1 sequence (Q02127 whole entry): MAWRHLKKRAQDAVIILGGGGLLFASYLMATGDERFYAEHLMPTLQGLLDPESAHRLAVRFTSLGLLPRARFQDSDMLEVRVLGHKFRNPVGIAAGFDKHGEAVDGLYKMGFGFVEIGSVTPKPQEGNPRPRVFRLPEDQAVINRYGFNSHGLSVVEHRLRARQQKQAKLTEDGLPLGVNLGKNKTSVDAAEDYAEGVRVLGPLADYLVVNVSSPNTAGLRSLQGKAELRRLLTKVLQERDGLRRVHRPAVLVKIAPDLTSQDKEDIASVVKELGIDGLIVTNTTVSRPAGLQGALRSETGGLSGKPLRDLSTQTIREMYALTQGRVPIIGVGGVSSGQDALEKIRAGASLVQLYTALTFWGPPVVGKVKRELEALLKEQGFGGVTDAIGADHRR

inhibition [1] [%]	IC50 [2] [nM]	Ratio IC50 [3]	Compound
26.9	–	–	O=C(Nc1ccc(F)cc1F)c1cccc2nc(-c3cc(Br)nn3-c3ncccc3Cl)[nH]c12
24.9	–	–	CCNC(=O)c1cccc2nc(-c3cc(Br)nn3-c3ncccc3Cl)[nH]c12
1.3	–	–	COc1ccc(NC(=O)c2cccc3nc(-c4cc(Br)nn4-c4ncccc4Cl)[nH]c23)c(OC)c1
48.8	–	–	Cc1ccc(NC(=O)c2cccc3nc(-c4cc(Br)nn4-c4ncccc4Cl)[nH]c23)c(C)c1
44	–	–	O=C(NCc1ccc(Cl)cc1)c1cccc2nc(-c3cc(Br)nn3-c3ncccc3Cl)[nH]c12
23.4	–	–	CCCNC(=O)c1cccc2nc(-c3cc(Br)nn3-c3ncccc3Cl)[nH]c12
30.1	–	–	CCCNC(=O)c1cccc2oc(-c3cc(Br)nn3-c3ncccc3Cl)nc12
24.8	–	–	O=C(Nc1ccccc1I)c1cccc2nc(-c3cc(Br)nn3-c3ncccc3Cl)[nH]c12
31.9	–	–	O=C(Nc1ccc(F)c(F)c1F)c1cccc2nc(-c3cc(Br)nn3-c3ncccc3Cl)[nH]c12
26.6	–	–	CCCNC(=O)c1cccc2nc(-c3cc(Br)nn3-c3ncccc3Cl)oc12
14.1	–	–	CNC(=O)c1cccc2nc(-c3cc(Br)nn3-c3ncccc3Cl)[nH]c12
60.5	178	2	COc1ccccc1NC(=O)c1cccc2nc(-c3cc(Br)nn3-c3ncccc3Cl)[nH]c12
27.6	–	–	O=C(Nc1ccccc1Br)c1cccc2nc(-c3cc(Br)nn3-c3ncccc3Cl)[nH]c12
36.1	–	–	COc1ccc(NC(=O)c2cccc3nc(-c4cc(Br)nn4-c4ncccc4Cl)[nH]c23)cc1
32	–	–	O=C(NCc1ccc(C(F)(F)F)cc1)c1cccc2nc(-c3cc(Br)nn3-c3ncccc3Cl)[nH]c12
9.43	–	–	COc1cccc(C)c1NC(=O)c1cccc2nc(-c3cc(Br)nn3-c3ncccc3Cl)[nH]c12
64	–	–	C/C(O)=C(\C#N)C(=O)Nc1ccc(C(F)(F)F)cc1
18.9	–	–	Cc1cccc(NC(=O)c2cccc3nc(-c4cc(Br)nn4-c4ncccc4Cl)[nH]c23)c1
49.4	–	–	O=C(Nc1ccccc1)c1cccc2nc(-c3cc(Br)nn3-c3ncccc3Cl)[nH]c12
22.7	–	–	Cc1ccc(CNC(=O)c2cccc3nc(-c4cc(Br)nn4-c4ncccc4Cl)[nH]c23)cc1
0	–	–	COc1cccc(OC)c1NC(=O)c1cccc2nc(-c3cc(Br)nn3-c3ncccc3Cl)[nH]c12
34.9	–	–	O=C(NCc1ccccc1)c1cccc2nc(-c3cc(Br)nn3-c3ncccc3Cl)[nH]c12
55.2	4850	–	COc1ccc(C(F)(F)F)cc1NC(=O)c1cccc2nc(-c3cc(Br)nn3-c3ncccc3Cl)[nH]c12
36.3	–	–	O=C(Nc1ccc(C(F)(F)F)cc1)c1cccc2nc(-c3cc(Br)nn3-c3ncccc3Cl)[nH]c12
43	–	–	O=C(NCc1c(F)ccc(F)c1F)c1cccc2nc(-c3cc(Br)nn3-c3ncccc3Cl)[nH]c12
27.6	–	–	O=C(NCc1ccccn1)c1cccc2nc(-c3cc(Br)nn3-c3ncccc3Cl)[nH]c12
73.9	676	–	Cc1ccccc1NC(=O)c1cccc2nc(-c3cc(Br)nn3-c3ncccc3Cl)[nH]c12
15.7	–	–	COc1cccc(F)c1NC(=O)c1cccc2nc(-c3cc(Br)nn3-c3ncccc3Cl)[nH]c12
38.8	–	–	O=C(Nc1ccccc1F)c1cccc2nc(-c3cc(Br)nn3-c3ncccc3Cl)[nH]c12
